Measured values from patent publication US20230110824A1, “FLUORESCENT PROBES FOR DETECTION OF CALCIFICATIONS” (TECHNISCHE UNIVERSITÄT BERLIN, priority 2020, published 2023).
“Also recorded” adds a separate entry of the source.

Key:
[1] = Staining of mouse rib sections with the dyes, epifluorescence microscopy; assay type: binding, mouse (C57BL/6); conditions: for dependence of fluorescence intensity of rib staining on incubation time: 10 to 120 mins; for dependence of fluorescence intensity of rib staining on dye concentration: 1, 0.1 and 0.01 mg/mL in HEPES; for HAP-associated staining / binding to HAP in rib sections: 1 mg/mL
Method: Mouse ribs (C57BL/6) were fixed in 4% paraformaldehyde (PFA). Ribs were processed for wax embedding through sequential immersion in increasing concentrations of ethanol followed by immersion in xylene/clearene and paraffin wax embedding. Rib sections (6 μm thickness) were dewaxed with xylene and rehydrated with decreasing concentrations of ethanol and distilled water (dH2O). Rib sections were incubated with a variety of either namely((4-(5,5-difluoro-1,3,7,9-tetramethyl-5H-414,514-dipyrrolo[1,2-c:2′,1′-f][1,3,2]diazaborinin-10-yl)phenyl)phosphonic acid) (BODIPY-PPA), 5,10,15,20-tetrakis[p-phenylphosphonicacid] porphyrin (p-H8TPPA) and 5,10,15,20-tetrakis[m-phenylphosphonic acid] porphyrin (m-H8TPPA) dyes. […] Meso-tetra(4-phosphorylphenyl)porphine, porph-tetra-meta-phenyl phosphonate, BODIPY-PPA; and BODIPY-PPA-2Et2 were all incubated for 120 mins when diluted to 1, 0.1 and 0.01 mg/mL in HEPES, and incubated at 1 mg/mL for 120, 60, 30, 20 and 10 mins. Images were obtained for up to two weeks after staining. p-H8TPPA-iPr8 and p-TBr3PPA-iPr2 were only incubated for 120 mins at 1 mg/mL, including an incubation with dimethyl sulfoxide (DMSO). Negative controls were included by incubating ribs with the buffers alone. Following incubation with the respective dyes, slides were washed with their respective buffers (3×5 mins) and counter stained with DAPI, diluted in PBS, for 20 mins. After washing with PBS (3×5 mins), slides were mounted with 70% glycerol, diluted in PBS. Images were acquired on a Leica DM5500 epifluorescent microscope, using a 20× objective. The exposure times used to capture these images were kept the same throughout imaging. Images were processed using the FIJI software.
To further probe their HAP binding properties, we have used laterally sectioned mouse ribs as an example of HAP, which were incubated with p-H8TPPA at concentrations ranging from 0.01 to 1.0 mg/mL in HEPES buffer for varying times at room temperature and imaged by fluorescence microscopy (for details see description of the figures), to assess HAP binding capability.

THP-1 monocytes = assay: Cellular uptake / cell labeling of proliferating THP-1 monocytes, fluorescence emission scan; assay type: cell-based, human; conditions: loading buffer, 60 min, 420 nm excitation
Method: In addition to the application on bone sections, the phenylphosphonic acid/esterified porphyrins' propensity for cellular uptake was tested on proliferating human cells (FIG. 15). Aiming to use phenylphosphonic acid functionalized porphyrins in in vivo applications, the negative charge on the deprotonated phosphonate might be a handicap by limiting cell permeability. Optional demasking of phosphonate esters in metabolic surroundings might occur, recreating the metal binding PhPO3^2-. This possibility led us to examine p-H8TPPA and p-H8TPPA-iPr8 suitability for in vivo cellular experiments by testing their permeability on proliferating human THP-1 monocytes.
We have treated THP-1 monocytes with the Phosphorylphenyl-modified porphyrins in loading buffer (10 mM HEPES, pH 7.35, 120 mM NaCl, 5.4 mM KCl, 5 mM glucose, 1.3 mM CaCl2, 1 mM MgCl2, 1 mM NaH2PO4, 0.3% bovine serum albumin) for 60 min. Excess fluorescence dye was removed by multiple washing steps before fluorescence emission scanning using 420 nm excitation (Tecan Infinite M200 reader; Tecan, Germany). […] We hypothesize that the phosphonates, being somewhat amphipathic, were able to penetrate the cell membrane, whereas the more nonpolar esters were not as efficient.

[2] = Precipitation / solubility of the dye in incubation buffers
Method: Mouse ribs were incubated for 120 mins with p-TBr3PPA-iPr2 (5,10,15-tris[p-bromophenyl]-20-[p-phenyl-, bis(1-methylethyl) ester phosphonic acid] porphyrin) diluted to 1 mg/mL in different buffers.
Mouse ribs were incubated for 120 mins with p-H8TPPA-iPr8 phosphonate diester diluted to 1 mg/mL in different buffers.

[3] = Absorbance and fluorescence spectra in presence and absence of HAP (Flexstation 3 microplate reader); assay type: binding
Method: The absorbance (A) and fluorescence (B) spectra of 0.01 mg mL^−1p-H8TPPA in the presence (dashed lines) and absence (solid lines) of HAP. The dye was diluted to 0.01 mg mL^−1 in PBS (pH 7.4, green), TBS (pH 7.4, orange), HEPES (pH 7.4, purple) and d H2O with absorbance and fluorescence spectra obtained using the Flexstation 3 microplate reader.
Characterization of Probes: The structure and purity of the probes were characterized by liquid chromatography, infrared, NMR, and/or mass spectrometry. Their optical properties were characterized by absorption and fluorescence spectrophotometry in the presence and absence of authentic hydroxyapatite, whitlockite, and other doped apatites. The dyes were also tested on mouse ribs as an example of hydroxyapatite in tissue.
This is also reflected in the maximal peak of the fluorescence intensity (FIG. 14 B), with a shift from λem 646-648 nm for PBS, TBS and HEPES to λem 675 nm when diluted in dH2O. […] Previously reported bisphosphonate fluorophores had […] aliphatic carbons between the fluorescent core and HAP binding, therefore, such systems merely functioned as fluorescent labels with no change in emission due to HAP binding since they lacked synergistic interaction between the HAP and the fluorescent core. Phosphonic acids that have direct sp^2 bonds to the fluorescent core could extend the conjugation of the fluorescent core to the HAP and thereby could initiate changes in the ground and excited states resulting in quenching or enhancing the fluorescence emission.

[4] = system: intestinal Caco-2 cell line; conditions: at high concentrations; cited from earlier work
[5] = 1 mg/mL in HEPES, 120 mins, imaged up to 14 days / two weeks after staining

((4-(5,5-difluoro-1,3,7,9-tetramethyl-5H-414,514-dipyrrolo[1,2-c:2′,1′-f][1,3,2]diazaborinin-10-yl)phenyl)phosphonic acid) [BODIPY-PPA]
dependence of fluorescence intensity of rib staining on incubation time ([1]; 1 mg/mL in HEPES): decrease in fluorescence intensity is observed for decreasing incubation times
change of fluorescence intensity after staining [1, 5]: only a very slight decrease in fluorescence intensity
dependence of fluorescence intensity of rib staining on dye concentration ([1]; 120 mins): strong concentration dependency of staining

CC(C)OP(=O)(OC(C)C)c1ccc(-c2c3nc(c(-c4ccc(P(=O)(OC(C)C)OC(C)C)cc4)c4ccc([nH]4)c(-c4ccc(P(=O)(OC(C)C)OC(C)C)cc4)c4nc(c(-c5ccc(P(=O)(OC(C)C)OC(C)C)cc5)c5ccc2[nH]5)C=C4)C=C3)cc1 [p-H8TPPA-iPr8]
HAP-associated staining / binding to HAP in rib sections ([1]; 120 mins): no binding to HAP occurring; also recorded: complete lack of HAP-associated staining
cell labeling / passage through the cellular membrane (THP-1 monocytes): hindered their passage through the cellular membrane
solubility in the aqueous [2]: dramatically reduced their solubilities

CC(C)OP(=O)(OC(C)C)c1ccc(-c2c3nc(c(-c4ccc(Br)cc4)c4ccc([nH]4)c(-c4ccc(Br)cc4)c4nc(c(-c5ccc(Br)cc5)c5ccc2[nH]5)C=C4)C=C3)cc1 [p-TBr3PPA-iPr2, 5,10,15-tris[p-bromophenyl]-20-[p-phenyl-, bis(1-methylethyl) esterphosphonic acid] porphyrin]
HAP-associated staining / binding to HAP in rib sections ([1]; 120 mins): lack of HAP-associated staining; also recorded: no binding to HAP occurring
behaviour of the dye during incubation ([2]; 1 mg/mL in DMSO): precipitation of the dye
behaviour of the dye during the incubation period ([2]; 1 mg/mL in HEPES, PBS, TBS and dH2O, 120 mins): precipitated

O=P(O)(O)c1ccc(-c2c3nc(c(-c4ccc(P(=O)(O)O)cc4)c4ccc([nH]4)c(-c4ccc(P(=O)(O)O)cc4)c4nc(c(-c5ccc(P(=O)(O)O)cc5)c5ccc2[nH]5)C=C4)C=C3)cc1 [p-H8TPPA, 5,10,15,20-tetrakis[p-phenylphosphonic acid] porphyrin]
fluorescent signal of stained ribs ([1]; 0.1 mg/mL in HEPES): clear fluorescent signal
fluorescent signal of stained ribs ([1]; 1 mg/mL diluted in dH2O): no fluorescent signal
dependence of fluorescence intensity of rib staining on incubation time ([1]; 1 mg/mL in HEPES): clear increase in fluorescence intensity with an increasing incubation time
difference of fluorescence intensity between buffers ([1]; 1 mg/mL in HEPES, PBS, TBS): no clear difference
change of fluorescence intensity after staining ([1]; 1 mg/mL in HEPES, day of staining vs 7 days later): noticeable decrease in fluorescence intensity
fluorescent signal of stained ribs compared to HEPES only negative control ([1]; 1 mg/mL in HEPES, incubated for 10 mins): clear fluorescent signal
HAP-associated staining / binding to HAP in rib sections ([1]; 120 mins): specific for hydroxyapatite
dependence of fluorescence intensity of rib staining on dye concentration ([1]; 120 mins): binds to HAP with a concentration dependence
fluorescent signal after staining ([1]; diluted in PBS, after two weeks): weak fluorescent signal
fluorescent signal after staining ([1]; diluted in PBS, one week after staining): fluorescent signal above background signal
fluorescent signal after staining ([1]; diluted in TBS, one week after staining): fluorescent signal above background signal
fluorescence intensity upon HAP binding [3]: increased
increase of fluorescence intensity upon HAP binding ([3]; 0.01 mg mL^-1 in HEPES pH 7.4): 2.0 fold
increase of fluorescence intensity upon HAP binding ([3]; 0.01 mg mL^-1 in PBS pH 7.4): 1.8 fold
increase of fluorescence intensity upon HAP binding ([3]; 0.01 mg mL^-1 in TBS pH 7.4): 2.0 fold
increase of fluorescence intensity upon HAP binding ([3]; 0.01 mg mL^-1 in d H2O): 1.6 fold
maximal peak of the fluorescence intensity (λem) ([3]; PBS, TBS and HEPES): 646-648 nm
absorbance peak maximum ([3]; PBS, TBS and HEPES (before shift)): 415 nm
absorbance peak maximum ([3]; diluted in dH2O): 435 nm
maximal peak of the fluorescence intensity (λem) ([3]; diluted in dH2O): 675 nm
cell labeling / passage through the cellular membrane (THP-1 monocytes): much more efficient in cell labeling; also recorded: can travel through the cellular membrane
toxicity for an intestinal cell line [4]: no toxicity

O=P(O)(O)c1cccc(-c2c3nc(c(-c4cccc(P(=O)(O)O)c4)c4ccc([nH]4)c(-c4cccc(P(=O)(O)O)c4)c4nc(c(-c5cccc(P(=O)(O)O)c5)c5ccc2[nH]5)C=C4)C=C3)c1 [m-H8TPPA, 5,10,15,20-tetrakis[m-phenylphosphonic acid] porphyrin]
dependence of fluorescence intensity of rib staining on incubation time ([1]; 1 mg/mL in HEPES): no clear difference in fluorescence intensity
change of fluorescence intensity after staining [1, 5]: no noticeable decrease in fluorescence intensity
dependence of fluorescence intensity of rib staining on dye concentration ([1]; 120 mins): little to no difference in the fluorescent intensity
duration of fluorescence of stained ribs ([1]; compared to p-H8TPPA): longer fluorescence period
